Measurements as given in patent US6589961B2, “9-alkylamino-1-nitroacridine derivatives” (New York Medical College, priority 2000, dated 2003).
Where “and” joins values, the source holds several entries; their conditions need not be identical. Identical values can stand only once.

Experiments:
Format in all cases: in vivo
[1] = test system: ascites adenocarcinoma Walker 256; assay: Antitumor activity against ascites adenocarcinoma Walker 256 in rats (survival); conditions: Wistar rats; for Optimal dose: dose giving the highest antitumor activity, i.p. on days 3, 4 and 5 after tumor transplantation, five doses tested; for Antitumor activity against Walker256 (Survival) Test/Control: mean survival time of test group vs control at the optimal dose, i.p. on days 3, 4 and 5
Procedure: Tumors are transplanted weekly into Wistar rats by intraperitoneal inoculation of 10^6 tumor cells. In the experiments, Walker carcinosarcoma 256 cells are transplanted on day 0 in Wistar rats weighing 75-100 g. by i.p. injection of 10^6 cells per animal. Each acridine is administered i.p. on days 3, 4, and 5 after tumor transplantation. Five rats are in each group at a given drug dose level and a group of 10 rats served as control for all test groups. […] Each acridine is tested at five different doses. The activity of the drug T/C (%) is expressed as % increase in mean survival time (in days) of test group (T) to the mean survival time (in days) of the control (C). Usually, the antitumor activity is presented only for the optimal dose (O.D. mg/kg/day) of tested compounds, at which the highest antitumor activity is observed.

Dunning G cells = assay: Antitumor activity in Dunning G induced tumors in Copenhagen rats; conditions: two weeks after treatment withdrawal
Procedure: Four to five week old Copenhagen rats are purchased from Harlan Sprague Dawley, Indianapolis, Ind., and allowed to acclimate for one week, feeding on Purina 5001 rat chow. At the end of one week, the rats are randomized into different experimental groups. Body weights of the animals measured twice a week.
Live Dunning G cells (one million/rat) are injected subcutaneously in all animals to induce tumors. Dunning G cells are non-metastatic tumor producing prostate cancer cells derived from spontaneous tumors from Copenhagen rats. Dunning G and MAT-LyLu cells (Yedavelli et al, 1999, Int. J. Mol. Med. 4:243-248) are grown in RPMI 1640 containing 10% fetal bovine serum (FBS) supplemented with penicillin (50 IU/mL), streptomycin (50 μg/mL), 2 mM L-glutamine and 2.5 mM dexamethasone. Cells are fed twice a week and are trypsinized with 0.05% trypsin-EDTA at 70-80 percent cell confluency.
Animals are injected i.p twice a week with 9-(2′-hydroxyethylamino)-4-methyl-1-nitroacridine (0.8 or 1.0 mg/Kg body weight) 1-nitro-9-hydroxyethylaminoacridine (0.6 mg/Kg body weight) twice a week for three weeks. Injections are started on day 25 for animals injected with Dunning G cells when tumors are palpable (0.5 cm). All animals are housed in hanging cages with three/four animals per cage and had ad libitum access to food and drinking water and are kept on twelve hour diurnal cycle. All injections and tumor measurements are performed under light anesthesia (metofane inhalation). Experimental end point measurements include body weight, tumor incidence. The experiment is terminated when the tumor size in the control animals is 3 cms diameter. Sacrifice of the animals is done by carbon dioxide asphyxiation.
Stock solution of 9-(2′-hydroxyethylamino)-4-methyl-1-nitroacridine is made in dimethylsulfoxide at 0.16 mg/ml. All drugs for injection in animals are diluted in PBS such that the total volume injected is between 0.1 to 0.2 mL. Stock solution of 1-nitro-9-hydroxyethylaminoacridine is made in dimethylsulfoxide at 0.12 mg/ml.

TSU cells = assay: Antitumor activity on human prostate tumor (TSU) xenografts in nude mice; conditions: Balb c/nu/nu mice
Procedure: Tumors are induced in six week old Balb c/nu/nu mice which are allowed to acclimate for two weeks by subcutaneous injection of 2×10^6 TSU cells per mouse. TSU cells are human prostate cancer cells (Iizumi et al., 1987, J. Urol. 137:1304-1306). TSU cells are grown in RPMI-1640 medium supplemented with 10% fetal bovine serum and the antibiotics penicillin (50 IU/ml), streptomycin (50 μg/ml) and 2 mM L-glutamine. Cells are fed with fresh media twice a week and are trypsinized using 0.05% trypsin-EDTA. Cells used for injection are always in the log phase of their growth (70-80%) confluent flask and cell viability is checked by trypan-blue exclusion test prior to injection. Only cells >95% […] are used.
Tumors are palpable in the mice by day 7 when treatment with the two drugs, mitoxantrone (0.6 mg/kg) and 9-(2′-hydroxyethylamino)-4-methyl-1-nitroacridine (0.8 mg/kg) is initiated. Treatment is continued twice weekly for three weeks. Mice are lightly anesthetized and tumors are measured and are weighed weekly. The stock concentrations of the drug are 0.12 mg/ml in PBS for mitoxantrone and 0.16 mg/ml in dimethylsulfoxide (DMSO) for 9-(2′-hydroxyethylamino)-4-methyl-1-nitroacridine. Mice are housed 5 animals/cage.

| Molecule | Optimal dose [1] | Antitumor activity against Walker256 (Survival) Test/Control [1] | also measured |
| --- | --- | --- | --- |
| 9-(4′-hydroxypropylamino)-7-methoxy-4-methyl-1-nitroacridine | 8 mg/kg | 183% |  |
| O=[N+]([O-])c1cccc2nc3ccccc3c(NCCO)c12 [1-nitro-9-hydroxyethylaminoacridine, reference compound] |  |  | reduction of tumors (Dunning G cells; 0.6 mg/Kg body weight i.p. twice a week for three weeks (FIG. 1 legend says 0.8 mg/Kg)): 50% |
| CC(=O)OCCNc1c2ccccc2nc2cccc([N+](=O)[O-])c12 [9-(2′-acetoxyethylamino)-1-nitroacridine] | 1 mg/kg | 167% |  |
| CC(=O)OCCNc1c2ccccc2nc2c(C)ccc([N+](=O)[O-])c12 [9-(2′-acetoxyethylamino)-4-methyl-1-nitroacridine] | 8 mg/kg | 233% |  |
| COc1ccc2nc3c(C)ccc([N+](=O)[O-])c3c(NCCOC(C)=O)c2c1 [9-(2′-acetoxyethylamino)-7-methoxy-4-methyl-1-nitroacridine] | 25 mg/kg | 133% |  |
| CCCCOCCNc1c2ccccc2nc2c(C)ccc([N+](=O)[O-])c12 [9-(2′-butyloxyethylamino)-4-methyl-1-nitroacridine] | 8 mg/kg | 217% |  |
| COc1ccc([N+](=O)[O-])c2c(NCCO)c3ccccc3nc12 [9-(2′-hydroxyethylamino)-4-methoxy-1-nitroacridine] | 16 mg/kg | 200% |  |
| Cc1ccc([N+](=O)[O-])c2c(NCCO)c3ccccc3nc12 [9-(2′-hydroxyethylamino)-4-methyl-1-nitroacridine] | 4 mg/kg | 217% | effect on tumors (FIG. 2) (TSU cells; 0.8 mg/kg twice weekly for three weeks from day 7, observation up to 11 weeks): reduction of the tumors until completely tumor free by five weeks and remained in force until 11 weeks; reduction of tumors (Dunning G cells; 0.8 mg/kg i.p. twice a week for three weeks): 65%; reduction of tumors (Dunning G cells; 1.0 mg/kg i.p. twice a week for three weeks): 75% |
| COc1ccc2nc3cccc([N+](=O)[O-])c3c(NCCO)c2c1 [9-(2′-hydroxyethylamino)-7-methoxy-1-nitroacridine] | 2 mg/kg | 150% and 200% |  |
| COc1ccc2nc3c(C)ccc([N+](=O)[O-])c3c(NCCO)c2c1 [9-(2′-hydroxyethylamino)-7-methoxy-4-methyl-1-nitroacridine] | 16 mg/kg | 233% |  |
| CCC(=O)OCCNc1c2ccccc2nc2cccc([N+](=O)[O-])c12 [9-(2′-propionoxyethylamino)-1-nitroacridine] | 1 mg/kg | 200% |  |
| CCC(=O)OCCNc1c2ccccc2nc2c(C)ccc([N+](=O)[O-])c12 [9-(2′-propionoxyethylamino)-4-methyl-1-nitroacridine] | 8 mg/kg | 214% |  |
| CCC(=O)OC(C)CNc1c2ccccc2nc2c(C)ccc([N+](=O)[O-])c12 (stereo not drawn) [9-(2′-propionoxypropylamino)-4-methyl-1-nitroacridine] | 8 mg/kg | 257% |  |
| CC(=O)OCCCNc1c2ccccc2nc2c(C)ccc([N+](=O)[O-])c12 [9-(3′-acetoxypropylamino)-4-methyl-1-nitroacridine] | 8 mg/kg | 157% |  |
| COc1ccc2nc3c(C)ccc([N+](=O)[O-])c3c(NCCCOC(C)=O)c2c1 [9-(3′-acetoxypropylamino)-7-methoxy-4-methyl-1-nitroacridine] | 16 mg/kg | 217% |  |
| COc1ccc([N+](=O)[O-])c2c(NCCCO)c3ccccc3nc12 [9-(3′-hydroxypropylamino)-4-methoxy-1-nitroacridine] | 2 mg/kg | 157% |  |
| Cc1ccc([N+](=O)[O-])c2c(NCCCO)c3ccccc3nc12 [9-(3′-hydroxypropylamino)-4-methyl-1-nitroacridine] | 2 mg/kg | 233% |  |
| COc1ccc2nc3cccc([N+](=O)[O-])c3c(NCCCO)c2c1 [9-(3′-hydroxypropylamino)-7-methoxy-1-nitroacridine] | 0.5 mg/kg | 182% and 229% |  |
| COc1ccc2nc3c(C)ccc([N+](=O)[O-])c3c(NCCCO)c2c1 [9-(3′-hydroxypropylamino)-7-methoxy-4-methyl-1-nitroacridine] | 16 mg/kg | 183% |  |
| COc1ccc([N+](=O)[O-])c2c(NCCCCO)c3ccccc3nc12 [9-(4′-hydroxybutylamino)-4-methoxy-1-nitroacridine] | 32 mg/kg | 200% |  |
| COc1ccc2nc3cccc([N+](=O)[O-])c3c(NCCCCO)c2c1 [9-(4′-hydroxybutylamino)-7-methoxy-1-nitroacridine] | 2 mg/kg | 157% |  |
| O=C1c2c(O)ccc(O)c2C(=O)c2c(NCCNCCO)ccc(NCCNCCO)c21 [mitoxantrone, reference compound] |  |  | effect on tumors (FIG. 2) (TSU cells; 0.6 mg/kg twice weekly for three weeks from day 7): showed a reduction till three weeks and the tumors started growing eight weeks after withdrawal of therapy |
